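Five concentrations, 48 hours, 96-well plates. GI50: concentration for 50% inhibition of growth.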 Active and inactive are the calls of the source. Cut-off read from the data, not from the text of the source: active = GI50 up to about 1.1 µM and inactive = higher. Starred links: 1 amine or outer side, 2 acyl side, 3 side chain; linkers in the order of their positions; H or OH if unused. Non-standard residues stand in square brackets, D forms with d. Residues, ends and D or L forms follow the SMILES beside them. ξ: configuration not given here. X24 = O=C(C(CC(O)CO)O[*:1])[*:2]; Ile(3ξ) = CCC(C)[C@H](N)C(=O)O; NMeV = CN[C@H](C(=O)O)C(C)C; NMeA = CN[C@@H](C)C(=O)O; βAla = NCCC(=O)O
Experiments:
Test in all cases: DTP human tumour cell line panel, 48 h
A498 = tested on: A498
DLD-1 = tested on: DLD-1
HCC 2998 = tested on: HCC 2998
HCT-116 = tested on: HCT-116
HL-60 = tested on: HL-60
HOP-92 = tested on: HOP-92
HT-29 = tested on: HT-29
IGROV-1 = tested on: IGROV-1
MOLT-4 = tested on: MOLT-4
Malme-3M = tested on: Malme-3M
NCI-H460 = tested on: NCI-H460
OVCAR-4 = tested on: OVCAR-4
OVCAR-5 = tested on: OVCAR-5
RXF 393 = tested on: RXF 393
SN12C = tested on: SN12C
UACC-257 = tested on: UACC-257
UACC-62 = tested on: UACC-62
UO-31 = tested on: UO-31
MDA-MB-231 = tested on: MDA-MB-231
MDA-MB-435 = tested on: MDA-MB-435

Compound | GI50 (A498) | GI50 (DLD-1) | GI50 (HCC 2998) | GI50 (HCT-116) | GI50 (HL-60) | GI50 (HOP-92) | GI50 (HT-29) | GI50 (IGROV-1) | GI50 (MOLT-4) | GI50 (Malme-3M) | GI50 (NCI-H460) | GI50 (OVCAR-4) | GI50 (OVCAR-5) | GI50 (RXF 393) | GI50 (SN12C) | GI50 (UACC-257) | GI50 (UACC-62) | GI50 (UO-31) | GI50 (MDA-MB-231) | GI50 (MDA-MB-435)
CN(C)CCc1ccc(Cl)cc1Cl | > 100 µM (inactive) | > 100 µM (inactive) | > 100 µM (inactive) | > 100 µM (inactive) | > 100 µM (inactive) | 62.2 µM (inactive) | > 100 µM (inactive) | > 100 µM (inactive) | > 100 µM (inactive) | > 100 µM (inactive) | > 100 µM (inactive) | > 100 µM (inactive) | > 100 µM (inactive) | > 100 µM (inactive) | > 100 µM (inactive) | > 100 µM (inactive) | > 100 µM (inactive) | > 100 µM (inactive) | – | –
CCCCCCCCOCC(O)COC(C)C (stereo not given) | 68.9 µM (inactive) | 89.7 µM (inactive) | 26.6 µM (inactive) | 53.1 µM (inactive) | 14.9 µM (inactive) | 13.7 µM (inactive) | 50.7 µM (inactive) | > 100 µM (inactive) | 17 µM (inactive) | 61.7 µM (inactive) | 42.6 µM (inactive) | 41.4 µM (inactive) | > 100 µM (inactive) | – | 24.2 µM (inactive) | 27.9 µM (inactive) | 91.4 µM (inactive) | 41.3 µM (inactive) | – | –
CCOC1=CP(=O)(OCC)CC(C)=C1Cl (stereo not given) | > 100 µM (inactive) | > 100 µM (inactive) | > 100 µM (inactive) | > 100 µM (inactive) | > 100 µM (inactive) | > 100 µM (inactive) | > 100 µM (inactive) | > 100 µM (inactive) | > 100 µM (inactive) | > 100 µM (inactive) | > 100 µM (inactive) | – | > 100 µM (inactive) | > 10 µM (inactive) | > 100 µM (inactive) | > 100 µM (inactive) | > 100 µM (inactive) | > 100 µM (inactive) | – | –
COc1ccc2c(c1)[n+]([O-])c(C(=O)C/C(=N\NC(=O)C[N+](C)(C)C)C(=O)Nc1cc(Cl)ccc1Cl)c(C)[n+]2[O-] | > 100 µM (inactive) | > 100 µM (inactive) | > 100 µM (inactive) | > 100 µM (inactive) | 88.3 µM (inactive) | > 100 µM (inactive) | > 100 µM (inactive) | > 100 µM (inactive) | > 100 µM (inactive) | > 100 µM (inactive) | > 100 µM (inactive) | > 100 µM (inactive) | > 100 µM (inactive) | > 100 µM (inactive) | > 100 µM (inactive) | > 100 µM (inactive) | 97.7 µM (inactive) | > 100 µM (inactive) | – | –
NC(CO)c1ccc(OCc2ccccc2)cc1 (stereo not given) | > 100 µM (inactive) | > 100 µM (inactive) | > 100 µM (inactive) | > 78.7 µM (inactive) | 24.4 µM (inactive) | 27.7 µM (inactive) | > 100 µM (inactive) | > 100 µM (inactive) | 27.5 µM (inactive) | > 100 µM (inactive) | > 100 µM (inactive) | > 92.7 µM (inactive) | > 100 µM (inactive) | > 73.5 µM (inactive) | > 91.8 µM (inactive) | > 100 µM (inactive) | > 70.8 µM (inactive) | 44.3 µM (inactive) | – | –
O=C(/C=C\c1cccc2ccccc12)c1cccs1 | 15.6 µM (inactive) | 3.77 µM (inactive) | 15.5 µM (inactive) | 3.03 µM (inactive) | 3.25 µM (inactive) | 11.9 µM (inactive) | 5.21 µM (inactive) | 10.3 µM (inactive) | 5.06 µM (inactive) | 12.5 µM (inactive) | 14 µM (inactive) | 17.7 µM (inactive) | 18.7 µM (inactive) | – | 16.8 µM (inactive) | 13.2 µM (inactive) | 9.95 µM (inactive) | 12.9 µM (inactive) | – | –
N#CC(C#N)=Cc1ccc(C(O)P(=O)(O)O)cc1 (stereo not given) | > 100 µM (inactive) | > 100 µM (inactive) | > 100 µM (inactive) | > 100 µM (inactive) | 93.5 µM (inactive) | 39.6 µM (inactive) | > 100 µM (inactive) | > 100 µM (inactive) | > 100 µM (inactive) | > 100 µM (inactive) | > 100 µM (inactive) | > 100 µM (inactive) | > 100 µM (inactive) | – | > 100 µM (inactive) | > 100 µM (inactive) | > 100 µM (inactive) | > 100 µM (inactive) | – | –
O=C1NC2C=CN(Cc3ccccc3)C=C2C(=O)N2CCCC12 (stereo not given) | > 100 µM (inactive) | > 100 µM (inactive) | > 100 µM (inactive) | > 100 µM (inactive) | > 100 µM (inactive) | > 100 µM (inactive) | > 100 µM (inactive) | > 100 µM (inactive) | > 100 µM (inactive) | > 100 µM (inactive) | > 100 µM (inactive) | > 100 µM (inactive) | > 100 µM (inactive) | > 100 µM (inactive) | > 100 µM (inactive) | > 100 µM (inactive) | > 100 µM (inactive) | > 100 µM (inactive) | – | –
COc1cc2cc3c4c(cc(OC)c(OC)c4c2cc1OC)CCN3C(=O)CCC(=O)O | 97.9 µM (inactive) | > 100 µM (inactive) | > 100 µM (inactive) | > 100 µM (inactive) | > 100 µM (inactive) | > 100 µM (inactive) | > 100 µM (inactive) | > 100 µM (inactive) | > 100 µM (inactive) | > 100 µM (inactive) | – | > 100 µM (inactive) | > 100 µM (inactive) | > 100 µM (inactive) | > 100 µM (inactive) | > 100 µM (inactive) | > 100 µM (inactive) | > 100 µM (inactive) | – | –
N#C/C(=N\c1ccccc1N(C(=O)c1ccccc1)C(=O)c1ccccc1)c1ccccc1 | > 59.2 µM (inactive) | > 42 µM (inactive) | > 68.4 µM (inactive) | 6.43 µM (inactive) | 0.923 µM (active) | 24.7 µM (inactive) | 15.3 µM (inactive) | 6.67 µM (inactive) | 3.82 µM (inactive) | > 100 µM (inactive) | 32.8 µM (inactive) | 32.2 µM (inactive) | > 47.4 µM (inactive) | – | > 71.8 µM (inactive) | > 100 µM (inactive) | 35.9 µM (inactive) | > 55.5 µM (inactive) | – | –
Cc1cc(Cl)cc2c1NC(=O)C2(O)C(C)C(=O)c1ccc(Cl)cc1 (stereo not given) | > 57.7 µM (inactive) | > 61.2 µM (inactive) | > 100 µM (inactive) | > 74.1 µM (inactive) | 3.15 µM (inactive) | 33.9 µM (inactive) | > 83.2 µM (inactive) | > 81.3 µM (inactive) | 28.4 µM (inactive) | > 61.7 µM (inactive) | > 100 µM (inactive) | 21.8 µM (inactive) | > 100 µM (inactive) | 47.8 µM (inactive) | > 74.1 µM (inactive) | 42.6 µM (inactive) | 20.2 µM (inactive) | > 100 µM (inactive) | – | –
CCOc1ccc2c(c1)[n+]([O-])c(-c1ccccc1Cl)c(N)[n+]2[O-] | > 100 µM (inactive) | > 100 µM (inactive) | – | > 100 µM (inactive) | 56.5 µM (inactive) | > 100 µM (inactive) | > 100 µM (inactive) | > 100 µM (inactive) | 74 µM (inactive) | > 100 µM (inactive) | > 100 µM (inactive) | > 100 µM (inactive) | > 100 µM (inactive) | > 100 µM (inactive) | > 100 µM (inactive) | > 100 µM (inactive) | – | > 100 µM (inactive) | – | –
CCCC/C=C1\CCC(CN2CCOCC2)C1=O (stereo not given) | 14.1 µM (inactive) | 1.75 µM (inactive) | 9.08 µM (inactive) | 2.04 µM (inactive) | 1.57 µM (inactive) | 1.83 µM (inactive) | 3.48 µM (inactive) | 14.3 µM (inactive) | 2.02 µM (inactive) | 2.19 µM (inactive) | 18.2 µM (inactive) | 11.7 µM (inactive) | 17.4 µM (inactive) | 1.51 µM (inactive) | 4.57 µM (inactive) | 5.28 µM (inactive) | 6.4 µM (inactive) | 4.22 µM (inactive) | 3.78 µM (inactive) | 10.7 µM (inactive)
CCC(C)[C@@H]1NC(=O)[C@@H]2CCCN2C(=O)C(CC(O)CO)OC(=O)CCNC(=O)[C@H](C)N(C)C(=O)[C@H](C(C)C)N(C)C1=O (stereo not given in full) (cyclo([Ile(3ξ)][NMeV][NMeA][βAla][X24]P)) | > 100 µM (inactive) | > 100 µM (inactive) | – | > 100 µM (inactive) | > 100 µM (inactive) | > 100 µM (inactive) | > 100 µM (inactive) | > 100 µM (inactive) | 43.1 µM (inactive) | > 100 µM (inactive) | > 100 µM (inactive) | > 100 µM (inactive) | > 100 µM (inactive) | > 100 µM (inactive) | > 100 µM (inactive) | > 100 µM (inactive) | > 100 µM (inactive) | > 100 µM (inactive) | – | –

From ChEMBL document CHEMBL1201862, “PubChem BioAssay data set” (2004)
